# Experimental data taken from patent publication US20030139578A1, “Antibodies specifically binding PDE8A and PDE8B” (Incyte Genomics, Inc., priority 1996, published 2003).
# Biological target: T1, PDE8A(E) (Homo sapiens, UniProt O60658)
# T1 construct: A 1.6 kb region of PDE8A(E) (the C-terminal 545 amino acids) was amplified and cloned into the baculovirus transfer vector pFASTBAC; made in house; host or cells: Sf9 insect cells (baculovirus, pFASTBAC)
# Assay: PDE activity assay, conversion of 3H-cAMP to 3H-adenosine by recombinant PDE8A(E)
# Type: biochemical
# Conditions: not given
# Procedure: Recombinant virus stocks were prepared according to the manufacturer's protocol. Sf9 cells were cultured in Sf900 II Sfm serum free media (Invitrogen) at 27 C. For expression, 1×10^8 Sf9 cells were infected at a multiplicity of infection of 5 in a final volume of 50 mls. At three days post-infection, the cells were harvested, and enzyme-containing lysates were prepared as described below.
# PDE8A(E) to be used for assay was prepared from transfected Sf9 cells. Cells were harvested by centrifugation, resuspended in homogenization buffer (20 mM Tris-HCl, 2 mM benzamidine, 1 mM EDTA, 0.25 M sucrose, 100 uM PMSF, pH 7.5) at 1×10^7 cells/ml, and disrupted with 3×10 second pulses using a Sonifier Processor (Emerson Branson, Korea). Cellular debris was removed by centrifugation at 14,000×g for 10 minutes. The supernatant was stored at −70° C.
# PDE activity was assayed by measuring the conversion of ^3H-cAMP to ^3H-adenosine in the presence of PDE8A(E) and 5′ nucleotidase. […] The reaction was started by the addition of 25 ul of diluted enzyme supernatant. Reactions were run directly in mini Poly-Q scintillation vials (BeckmanCoulter, Fullerton Calif.). […] The reaction was stopped by the addition of 1 ml of Dowex AG1×8 (C1 form) resin (1:3 slurry). Three ml of scintillation fluid were added, the contents of the vials were mixed, and the resin in the vials was allowed to settle for 1 hr before counting. Soluble radioactivity associated with ^3H-adenosine was quantitated using a Beta scintillation counter. The amount of radioactivity recovered is proportional to the activity of PDE8 in the reaction. For inhibitor studies (FIG. 8), all reactions contained 1% DMSO, 50 nM cAMP, and the indicated inhibitor concentrations. The control vial contained all reagents minus the enzyme aliquot.
# T1 sequence (O60658 285-829 limits assumed): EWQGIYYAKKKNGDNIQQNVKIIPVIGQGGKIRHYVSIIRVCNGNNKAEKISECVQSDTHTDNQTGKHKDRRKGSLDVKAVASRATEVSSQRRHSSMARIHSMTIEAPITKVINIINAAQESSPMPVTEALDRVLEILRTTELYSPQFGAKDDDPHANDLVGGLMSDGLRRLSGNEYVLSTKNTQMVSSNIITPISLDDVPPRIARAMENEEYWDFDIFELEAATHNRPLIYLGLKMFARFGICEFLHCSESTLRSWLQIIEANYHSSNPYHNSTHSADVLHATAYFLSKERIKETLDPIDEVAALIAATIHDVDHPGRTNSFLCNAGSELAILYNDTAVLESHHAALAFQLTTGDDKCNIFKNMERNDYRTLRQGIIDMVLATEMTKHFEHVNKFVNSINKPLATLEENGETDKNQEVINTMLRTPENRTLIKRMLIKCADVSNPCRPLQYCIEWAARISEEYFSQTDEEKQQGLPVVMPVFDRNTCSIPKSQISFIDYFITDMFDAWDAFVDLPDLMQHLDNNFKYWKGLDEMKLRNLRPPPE
row,Structure (SMILES),IC50
1,OCCN(CCO)c1nc(N2CCCCC2)c2nc(N(CCO)CCO)nc(N3CCCCC3)c2n1 [dipyridamole],9 µM

# Same assay, conditions: 1% DMSO, 50 nM cAMP; FIG. 8
row,inhibition of PDE8A(E) activity,Structure (SMILES)
1,not inhibited,CC(C)Cn1c(=O)n(C)c(=O)c2[nH]cnc21 [IBMX]
2,not inhibited,CC(=O)Nc1ccc(-c2c[nH]c(=O)cn2)cc1 [SKF94120]
3,not inhibited,COc1ccc(C2CNC(=O)C2)cc1OC1CCCC1 (stereo not drawn) [rolipram]
4,not inhibited,CCOC(=O)C1=C[C@]2(CC)CCCN3CCc4c(n1c1ccccc41)[C@@H]32 [vinpocetine]
5,not inhibited,CCCOc1ccccc1-c1nc2nn[nH]c2c(=O)[nH]1 [zaprinast]
